Test results taken from EP0314866A2, “Novel alkylated hormonereleasing peptides and method of treating mammals therewith” (The Administrators of The Tulane University Educational Fund, priority 1987, dated 1989).

System: plasma growth hormone
Assay: Evaluation of peptides in vivo in sheep: plasma GH after IV injection of GRF analogs
Set-up: species or system wether lambs
Conditions: lambs injected intravenously at 100 ng/kg; for Plasma GH (ng/ml) Post-inj Mean: two hours after treatment, means of 8 samples/animal from 8 animals
Protocol: The purpose of this experiment is to compare the GH releasing activities of several GRF analogs selected for expected high potency and the lack of either a terminal amide or a D-amino acid. The analogs to be compared in wether lambs at 100 ng/kg (IV) are tri-isopropyl-GRF(1-29)-NH₂, tri-isopropyl-GRF(1-29)-OH, tri-isopropyl-GRF(1-40)OH, D-ala², arg^12,21-GRF (1-29)-OH, D-ala², arg^12,21-GRF(1-29)-NH₂, GRF(1-40)-OH and GRF(1-29)-NH₂
A balanced 8 x 8 Latin square design will be used to test the following 8 treatments:
The diet used in these evaluations is a standard sheep diet (pelleted) and fresh water ad libitum. All animals are fed one daily.
The animals are individually identified by numbered ear tags and held in numbered metabolism cages.
Sheep are maintained in individual metabolism cages at all times. Each sheep has previously received an indwelling jugular cannula which is flushed daily with heparinized (400-800 IU/ml) sterile saline to help maintain patency.
All compounds are solubilized at 5 ug/ml in sterile saline containing 1% Tween 80 and injected intravenously at 100 ng/kg. Control lambs receive equal volumes of the vehicle only. The drugs are prepared each day just prior to injection to minimize sticking to the vials.
Blood is collected in heparinized tubes at 15 minute intervals for one hours prior to and for two hours after the treatments are administered. Plasma samples are removed by centrifugation and frozen.
Body weights of each animal is taken at the start of the experiment and once during treatment.
Blood samples are taken from each animal at 15 minute intervals for 3 hours each day during the 8 day trial period. The samples are analyzed for plasma growth hormone (ng/ml). Data obtained are reported below as near values obtained for each treatment.

SMILES | Plasma GH (ng/ml) Peak | Plasma GH (ng/ml) Post-inj Mean
CC[C@H](C)[C@H](NC(=O)[C@H](C)NC(=O)[C@H](CC(=O)O)NC(=O)[C@H](C)NC(=O)[C@@H](N)Cc1ccc(O)cc1)C(=O)N[C@@H](Cc1ccccc1)C(=O)N[C@H](C(=O)N[C@@H](CC(N)=O)C(=O)N[C@@H](CO)C(=O)N[C@@H](Cc1ccc(O)cc1)C(=O)N[C@@H](CCCNC(=N)N)C(=O)N[C@@H](CCCCN)C(=O)N[C@H](C(=O)N[C@@H](CC(C)C)C(=O)NCC(=O)N[C@@H](CCC(N)=O)C(=O)N[C@@H](CC(C)C)C(=O)N[C@@H](CO)C(=O)N[C@@H](C)C(=O)N[C@@H](CCCNC(=N)N)C(=O)N[C@@H](CCCCN)C(=O)N[C@@H](CC(C)C)C(=O)N[C@@H](CC(C)C)C(=O)N[C@@H](CCC(N)=O)C(=O)N[C@@H](CC(=O)O)C(=O)N[C@H](C(=O)N[C@@H](CCSC)C(=O)N[C@@H](CO)C(=O)N[C@@H](CCCNC(=N)N)C(=O)N[C@@H](CCC(N)=O)C(=O)N[C@@H](CCC(N)=O)C(=O)NCC(=O)N[C@@H](CCC(=O)O)C(=O)N[C@@H](CO)C(=O)N[C@@H](CC(N)=O)C(=O)N[C@@H](CCC(N)=O)C(=O)N[C@@H](CCC(=O)O)C(=O)N[C@@H](CCCNC(=N)N)C(=O)NCC(=O)N[C@@H](C)C(=O)O)[C@@H](C)CC)C(C)C)[C@@H](C)O [GRF(1-40)-OH] | 92.3 ng/mL | 25.5 ng/mL
CC[C@H](C)[C@H](NC(=O)[C@H](C)NC(=O)[C@H](CC(=O)O)NC(=O)[C@H](C)NC(=O)[C@H](Cc1ccc(O)cc1)NC(C)C)C(=O)N[C@@H](Cc1ccccc1)C(=O)N[C@H](C(=O)N[C@@H](CC(N)=O)C(=O)N[C@@H](CO)C(=O)N[C@@H](Cc1ccc(O)cc1)C(=O)N[C@@H](CCCNC(=N)N)C(=O)N[C@@H](CCCCNC(C)C)C(=O)N[C@H](C(=O)N[C@@H](CC(C)C)C(=O)NCC(=O)N[C@@H](CCC(N)=O)C(=O)N[C@@H](CC(C)C)C(=O)N[C@@H](CO)C(=O)N[C@@H](C)C(=O)N[C@@H](CCCNC(=N)N)C(=O)N[C@@H](CCCCNC(C)C)C(=O)N[C@@H](CC(C)C)C(=O)N[C@@H](CC(C)C)C(=O)N[C@@H](CCC(N)=O)C(=O)N[C@@H](CC(=O)O)C(=O)N[C@H](C(=O)N[C@@H](CCSC)C(=O)N[C@@H](CO)C(=O)N[C@@H](CCCNC(=N)N)C(=O)N[C@@H](CCC(N)=O)C(=O)N[C@@H](CCC(N)=O)C(=O)NCC(=O)N[C@@H](CCC(=O)O)C(=O)N[C@@H](CO)C(=O)N[C@@H](CC(N)=O)C(=O)N[C@@H](CCC(N)=O)C(=O)N[C@@H](CCC(=O)O)C(=O)N[C@@H](CCCNC(=N)N)C(=O)NCC(=O)N[C@@H](C)C(=O)O)[C@@H](C)CC)C(C)C)[C@@H](C)O [tri-isopropyl-GRF(1-40)-OH, [N ^α-Isopropyl-Tyr¹, N ^ε-isopropyl-Lys^12,21]GRF(1-40)OH] | 108.6 ng/mL | 34.0 ng/mL
